In PubChem BioAssay (NCI):
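Interpolation was linear, between the two tested concentrations surrounding the appropriate level; five concentrations were tested over 48 hours in 96-well plates. GI50 marks 50% less growth. TGI: total growth inhibition.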

The molecules below were run on HCT-116 colon (assay: inhibition of tumour cell growth, NCI panel, 48 h).

Row | SMILES | TGI [µM] | GI50 [µM]
1 | C[N+](C)(C)CC(=O)N/N=C(/CC(=O)CC(C1=C(O)c2ccccc2OC1)c1ccccc1)C(=O)Nc1cccc(Cl)c1 (centres undefined) | > 100 | 
2 | O=C1/C(=C/c2ccc(O)c(O)c2)CCC/C1=C\c1ccc(O)c(O)c1 | 7.17 | 
3 | Cc1c(C(=O)C/C(=N/NC(=O)c2ccccc2O)C(=O)Nc2ccccc2C(C)C)[n+](=O)c2ccccc2n1[O-] | > 100 | 
4 | CCCCCCCCCCCC(=O)OCCOCCOCCOCCOCCOCc1ccccc1 | > 100 | 
5 | COC(=O)/C=C1\S/C(=N\NC(=O)c2cc3ccc2/C=C\c2ccc(cc2)/C=C\3)N(c2ccccc2)C1=O | 3.67 | 1.79
6 | COC([CH2][Hg][n]1cnc2c1c(=O)n(C)c(=O)n2C)CN1C(=O)c2ccccc2S1(=O)=O (centres undefined) | > 100 | > 100
7 | CCCC1C(=O)CCc2c(OC)ccc(OC)c21 (centres undefined) | > 100 | 
8 | O=C(CCc1nc(=S)[nH][nH]1)Nc1cc(Cl)c(Cl)cc1Cl | > 100 | 
9 | Cc1ccc(S(=O)(=O)OC[C@@H]2CO2)cc1 | > 100 | 
10 | C=CCO[C@H]1CO[C@H]2[C@@H]1OC[C@@H]2Oc1ccc(Nc2ccnc(Nc3ccc(O[C@H]4CO[C@H]5[C@@H]4OC[C@@H]5OCC=C)c(Cl)c3)n2)cc1Cl | 3.44 | 1.82
11 | CCn1c(C)nn2c(=O)c3ccccc3nc2c1=O | > 100 | 
12 | CCOC(=O)CCC1(C(=O)OCC)CCCCC1=O (centres undefined) | > 100 | 
13 | CCOC1Oc2ccccc2C(=O)/C1=C/Nc1ccc(C(C)=O)cc1 (centres undefined) | > 100 | 22.8
14 | O=C(CCNC12CC3CC(CC(C3)C1)C2)c1ccccc1 | 29.4 | 
15 | COc1cccc(-c2cc(-c3cccc(NS(C)(=O)=O)c3)nc(N)c2C#N)c1O | > 100 | 0.0783
16 | CC(=O)[CH-]C(=O)c1ccccc1.CC(=O)[CH-]C(=O)c1ccccc1.CN(C)c1ccc([O-])cc1.CN(C)c1ccc([O-])cc1.Cl.[Ti+4] | > 31.6 | 18.1
17 | CCN(CC)N=Nc1c(C(N)=O)n[nH]c1C | > 100 | 
18 | CCC[CH2][Sn]([CH2]CCC)([S]c1cccc2cccnc12)[S]c1cccc2cccnc12 | 0.303 | 0.155
19 | OCC1=CC(NC2CC(CO)C(O)C(O)C2O)C(O)C(O)C1O (centres undefined) | > 100 | 
20 | CCOC(=O)C(C)(C)Oc1ccc2c(-c3ccccc3)cc(=O)oc2c1 | > 100 | 
21 | O=C(Nc1ccc(F)cc1)Nc1ccc(Cl)c([N+](=O)[O-])c1 | 11.8 | 3.07
22 | CNC(=S)OCCC(C)CCCC(C)C (centres undefined) | 30.7 | 
23 | COC1/C=C/OC2(C)Oc3c(C)c(O)c4c(O)c(c(/C=N/Nc5ccc([N+](=O)[O-])cc5[N+](=O)[O-])c(O)c4c3C2=O)NC(=O)C(C)=C/C=C/C(C)C(O)C(C)C(O)C(C)C(OC(C)=O)C1C (centres undefined) | 1.9 | 0.955
24 | COC(=O)/C(C#N)=C1\NC(=O)c2ccccc21 | > 100 | 
25 | Cc1ccc(NC(=O)Nc2ccc(-c3cccnc3)cc2N2CCC(CO)CC2)cc1 | 11.4 | 1.78

Each molecule was assayed on SF-268 CNS (assay: inhibition of tumour cell growth, NCI panel, 48 h).

Row | SMILES | GI50 [µM] | TGI [µM]
26 | CN(C)c1ccc(/C=C\C2=[N+](C)c3ccccc3C2(C)C)cc1 | 0.654 | 34
27 | COc1cc2c(c3oc4c(O)cccc4c(=O)c13)CC(C(C)(O)CO)O2 (centres undefined) |  | > 100
28 | CC(=O)OC1OC([C@@H]2c3cccc(O)c3C(=O)c3c(O)cc(C)cc32)C(O)C(O)C1O (some centres undefined) | 0.106 | 4.52
29 | Nc1nc(-n2c(-c3ccccc3)nc3c(Br)cc(Br)cc3c2=O)nnc1-c1cccc(Cl)c1Cl | 20.3 | > 100
30 | C[N+](C)(C)CC(=O)N/N=C(/CC(=O)CC(C1=C(O)c2ccccc2OC1)c1ccccc1)C(=O)Nc1cccc(Cl)c1 (centres undefined) |  | > 100
31 | O=C1/C(=C/c2ccc(O)c(O)c2)CCC/C1=C\c1ccc(O)c(O)c1 |  | 14.7
32 | Cc1c(C(=O)C/C(=N/NC(=O)c2ccccc2O)C(=O)Nc2ccccc2C(C)C)[n+](=O)c2ccccc2n1[O-] |  | > 100
33 | CCCCCCCCCCCC(=O)OCCOCCOCCOCCOCCOCc1ccccc1 |  | > 100
34 | COC(=O)/C=C1\S/C(=N\NC(=O)c2cc3ccc2/C=C\c2ccc(cc2)/C=C\3)N(c2ccccc2)C1=O | 3.09 | 11.2
35 | COC([CH2][Hg][n]1cnc2c1c(=O)n(C)c(=O)n2C)CN1C(=O)c2ccccc2S1(=O)=O (centres undefined) | > 100 | > 100
36 | CCCC1C(=O)CCc2c(OC)ccc(OC)c21 (centres undefined) |  | > 100
37 | O=C(CCc1nc(=S)[nH][nH]1)Nc1cc(Cl)c(Cl)cc1Cl |  | > 100
38 | C=CCO[C@H]1CO[C@H]2[C@@H]1OC[C@@H]2Oc1ccc(Nc2ccnc(Nc3ccc(O[C@H]4CO[C@H]5[C@@H]4OC[C@@H]5OCC=C)c(Cl)c3)n2)cc1Cl | 1.98 | 3.76
